Laboratory results published in article doi:10.1101/2021.04.08.439011v1 (biorxiv, 2021).
Where two headings read alike, the source gives them in different places.

Tests used:
[1] = biological target: SYK (Homo sapiens, UniProt P43405); conditions: 1 µM; binder
[2] = biological target: PIK3C2B (Homo sapiens, UniProt O00750); conditions: 1 µM; binder
[3] = biological target: LIMK2 (Homo sapiens, UniProt P53671); conditions: 1 µM; binder
[4] = biological target: RPS6KA2 (Homo sapiens, UniProt Q15349); conditions: binder
RPS6KA2, sequence (Q15349 whole entry): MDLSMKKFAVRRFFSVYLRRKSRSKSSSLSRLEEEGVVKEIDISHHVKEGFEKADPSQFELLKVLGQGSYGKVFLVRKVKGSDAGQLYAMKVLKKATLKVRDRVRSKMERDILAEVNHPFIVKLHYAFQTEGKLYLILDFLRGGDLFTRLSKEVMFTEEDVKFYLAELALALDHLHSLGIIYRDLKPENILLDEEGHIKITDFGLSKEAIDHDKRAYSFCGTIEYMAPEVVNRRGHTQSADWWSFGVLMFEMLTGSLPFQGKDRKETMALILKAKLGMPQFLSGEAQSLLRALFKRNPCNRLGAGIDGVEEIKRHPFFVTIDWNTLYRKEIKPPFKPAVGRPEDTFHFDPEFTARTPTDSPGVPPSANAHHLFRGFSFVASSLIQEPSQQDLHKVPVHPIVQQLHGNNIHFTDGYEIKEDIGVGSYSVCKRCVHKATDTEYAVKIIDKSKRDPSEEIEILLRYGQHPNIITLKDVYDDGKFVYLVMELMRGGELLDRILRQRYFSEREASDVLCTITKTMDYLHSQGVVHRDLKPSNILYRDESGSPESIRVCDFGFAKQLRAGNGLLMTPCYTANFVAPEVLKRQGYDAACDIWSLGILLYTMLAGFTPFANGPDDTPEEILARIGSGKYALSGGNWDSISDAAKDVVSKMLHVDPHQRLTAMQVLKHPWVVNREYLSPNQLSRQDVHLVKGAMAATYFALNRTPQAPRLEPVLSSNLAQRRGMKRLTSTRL

[5] = biological target: DCAMKL1 (Homo sapiens, UniProt O15075); conditions: 1 µM; binder
[6] = biological target: TBK1 (Homo sapiens, UniProt Q9UHD2); conditions: 1 µM; binder
[7] = biological target: EPHA4 (Homo sapiens, UniProt P54764); conditions: 1 µM; binder
[8] = biological target: ACVR1B (Homo sapiens, UniProt P36896); conditions: 1 µM; binder
[9] = biological target: SgK110 (Homo sapiens, UniProt P0C264); conditions: 1 µM; binder
SgK110, sequence (P0C264 whole entry): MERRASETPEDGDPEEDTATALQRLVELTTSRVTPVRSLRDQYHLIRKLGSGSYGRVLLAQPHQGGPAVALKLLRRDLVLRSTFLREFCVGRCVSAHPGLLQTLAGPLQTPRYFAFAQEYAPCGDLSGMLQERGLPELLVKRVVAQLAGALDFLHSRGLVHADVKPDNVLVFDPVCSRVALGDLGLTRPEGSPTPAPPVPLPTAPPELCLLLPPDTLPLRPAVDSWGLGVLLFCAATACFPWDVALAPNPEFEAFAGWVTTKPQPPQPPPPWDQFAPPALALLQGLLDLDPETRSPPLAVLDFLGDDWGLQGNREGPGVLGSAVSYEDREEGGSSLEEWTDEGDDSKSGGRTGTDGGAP

[10] = biological target: PIK3CA(M1043I) (Homo sapiens, UniProt P42336, M1043I); conditions: 1 µM; binder
[11] = biological target: MST2 (Homo sapiens, UniProt Q13188); conditions: 1 µM; binder
[12] = biological target: NEK9 (Homo sapiens, UniProt Q8TD19); conditions: 1 µM; binder
[13] = biological target: MKNK2 (Homo sapiens, UniProt Q9HBH9); conditions: 1 µM; binder
MKNK2, sequence (Q9HBH9 whole entry): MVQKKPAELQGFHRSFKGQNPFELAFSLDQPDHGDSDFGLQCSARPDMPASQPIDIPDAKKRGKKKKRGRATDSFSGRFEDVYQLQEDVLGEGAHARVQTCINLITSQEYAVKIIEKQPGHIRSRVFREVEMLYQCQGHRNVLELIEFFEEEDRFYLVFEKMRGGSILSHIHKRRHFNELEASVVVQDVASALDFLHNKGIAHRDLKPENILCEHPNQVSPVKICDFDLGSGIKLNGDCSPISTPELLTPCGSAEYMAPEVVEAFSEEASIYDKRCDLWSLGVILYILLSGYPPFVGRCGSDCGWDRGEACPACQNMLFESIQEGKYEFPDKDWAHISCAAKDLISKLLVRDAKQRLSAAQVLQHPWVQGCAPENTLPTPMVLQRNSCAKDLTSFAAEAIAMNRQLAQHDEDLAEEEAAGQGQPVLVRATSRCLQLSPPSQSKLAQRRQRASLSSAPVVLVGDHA

[14] = biological target: ABL1-nonphosphorylated (Homo sapiens, UniProt P00519); conditions: 1 µM; binder
[15] = biological target: CAMK1D (Homo sapiens, UniProt Q8IU85); conditions: 1 µM; binder
[16] = biological target: BMX (Homo sapiens, UniProt P51813); conditions: 1 µM; binder
BMX, sequence (P51813 whole entry): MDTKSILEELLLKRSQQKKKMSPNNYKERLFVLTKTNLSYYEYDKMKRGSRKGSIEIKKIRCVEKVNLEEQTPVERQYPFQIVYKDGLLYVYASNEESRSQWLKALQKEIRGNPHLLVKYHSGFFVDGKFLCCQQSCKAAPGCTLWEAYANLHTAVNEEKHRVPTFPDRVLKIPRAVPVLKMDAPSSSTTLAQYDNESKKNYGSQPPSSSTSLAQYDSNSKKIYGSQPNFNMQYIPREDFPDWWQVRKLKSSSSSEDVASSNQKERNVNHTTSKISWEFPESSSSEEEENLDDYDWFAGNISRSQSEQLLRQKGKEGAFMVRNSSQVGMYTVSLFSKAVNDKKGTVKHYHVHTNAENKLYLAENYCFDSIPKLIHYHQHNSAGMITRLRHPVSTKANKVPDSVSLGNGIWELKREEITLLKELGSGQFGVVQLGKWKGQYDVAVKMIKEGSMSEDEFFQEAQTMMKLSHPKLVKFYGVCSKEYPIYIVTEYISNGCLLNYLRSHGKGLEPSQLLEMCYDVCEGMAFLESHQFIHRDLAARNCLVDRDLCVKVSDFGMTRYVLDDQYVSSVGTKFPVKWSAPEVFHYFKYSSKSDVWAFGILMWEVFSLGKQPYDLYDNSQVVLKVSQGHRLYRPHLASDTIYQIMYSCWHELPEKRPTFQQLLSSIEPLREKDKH

[17] = biological target: MINK (Homo sapiens, UniProt Q8N4C8); conditions: 1 µM; binder
[18] = biological target: PIKFYVE (Homo sapiens, UniProt Q9Y2I7); conditions: 1 µM; binder
PIKFYVE, sequence (Q9Y2I7 whole entry): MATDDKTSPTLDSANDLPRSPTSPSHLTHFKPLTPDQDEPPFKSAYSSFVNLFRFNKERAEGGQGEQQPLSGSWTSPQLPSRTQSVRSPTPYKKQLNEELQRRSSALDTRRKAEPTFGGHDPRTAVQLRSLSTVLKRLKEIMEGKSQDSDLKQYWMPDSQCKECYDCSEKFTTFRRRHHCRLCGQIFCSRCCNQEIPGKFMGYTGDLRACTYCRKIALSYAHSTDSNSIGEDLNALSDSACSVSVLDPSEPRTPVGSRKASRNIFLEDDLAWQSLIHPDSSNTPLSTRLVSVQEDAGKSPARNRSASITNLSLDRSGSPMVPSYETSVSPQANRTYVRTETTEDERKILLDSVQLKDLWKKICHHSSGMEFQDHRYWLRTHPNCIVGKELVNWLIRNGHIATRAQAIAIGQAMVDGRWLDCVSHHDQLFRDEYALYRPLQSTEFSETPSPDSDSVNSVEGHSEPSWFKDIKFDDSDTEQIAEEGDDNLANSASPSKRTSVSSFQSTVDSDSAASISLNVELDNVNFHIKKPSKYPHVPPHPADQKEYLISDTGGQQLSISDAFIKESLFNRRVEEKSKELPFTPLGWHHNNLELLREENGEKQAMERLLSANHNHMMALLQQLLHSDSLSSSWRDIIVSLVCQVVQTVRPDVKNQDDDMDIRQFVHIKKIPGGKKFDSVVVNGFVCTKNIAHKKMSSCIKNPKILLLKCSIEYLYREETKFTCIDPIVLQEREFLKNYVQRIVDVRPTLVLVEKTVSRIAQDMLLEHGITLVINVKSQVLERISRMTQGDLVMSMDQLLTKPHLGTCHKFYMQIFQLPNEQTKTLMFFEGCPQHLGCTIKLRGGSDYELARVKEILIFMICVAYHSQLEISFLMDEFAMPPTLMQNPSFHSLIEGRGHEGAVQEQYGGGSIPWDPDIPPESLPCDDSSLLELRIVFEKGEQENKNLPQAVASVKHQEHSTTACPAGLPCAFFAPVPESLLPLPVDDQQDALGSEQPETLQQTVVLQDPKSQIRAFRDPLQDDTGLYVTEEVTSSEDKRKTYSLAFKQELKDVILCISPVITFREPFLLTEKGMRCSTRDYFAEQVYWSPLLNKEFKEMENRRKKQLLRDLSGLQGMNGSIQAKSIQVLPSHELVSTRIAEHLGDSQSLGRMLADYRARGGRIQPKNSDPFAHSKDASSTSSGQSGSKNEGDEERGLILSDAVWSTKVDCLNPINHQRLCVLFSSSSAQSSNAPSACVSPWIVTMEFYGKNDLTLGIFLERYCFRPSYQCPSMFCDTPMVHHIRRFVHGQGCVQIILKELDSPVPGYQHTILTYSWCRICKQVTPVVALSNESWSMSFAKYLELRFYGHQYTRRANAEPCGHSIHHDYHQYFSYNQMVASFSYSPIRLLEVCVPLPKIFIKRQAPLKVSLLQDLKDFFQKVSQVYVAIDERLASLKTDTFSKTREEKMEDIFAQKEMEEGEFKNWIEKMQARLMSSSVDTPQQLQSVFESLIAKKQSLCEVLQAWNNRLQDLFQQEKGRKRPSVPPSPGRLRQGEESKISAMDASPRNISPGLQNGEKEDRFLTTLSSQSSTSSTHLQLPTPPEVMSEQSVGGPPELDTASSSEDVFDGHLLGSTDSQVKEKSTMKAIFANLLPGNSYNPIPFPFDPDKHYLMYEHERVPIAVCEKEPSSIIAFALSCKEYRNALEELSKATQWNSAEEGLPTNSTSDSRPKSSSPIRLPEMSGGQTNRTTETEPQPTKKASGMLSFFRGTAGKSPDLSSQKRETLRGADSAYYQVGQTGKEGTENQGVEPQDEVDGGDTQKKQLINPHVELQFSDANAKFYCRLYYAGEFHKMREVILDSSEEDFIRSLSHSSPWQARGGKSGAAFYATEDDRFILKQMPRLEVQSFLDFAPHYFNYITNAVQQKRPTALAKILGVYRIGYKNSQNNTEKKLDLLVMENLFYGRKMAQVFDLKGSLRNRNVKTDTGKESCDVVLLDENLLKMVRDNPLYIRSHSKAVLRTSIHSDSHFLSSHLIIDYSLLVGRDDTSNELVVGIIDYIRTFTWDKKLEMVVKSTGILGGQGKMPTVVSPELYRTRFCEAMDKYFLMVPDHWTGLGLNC

[19] = biological target: ARK5 (Homo sapiens, UniProt O60285); conditions: 1 µM; binder
[20] = biological target: PNCK (Homo sapiens, UniProt Q6P2M8); conditions: 1 µM; binder
PNCK, sequence (Q6P2M8 whole entry): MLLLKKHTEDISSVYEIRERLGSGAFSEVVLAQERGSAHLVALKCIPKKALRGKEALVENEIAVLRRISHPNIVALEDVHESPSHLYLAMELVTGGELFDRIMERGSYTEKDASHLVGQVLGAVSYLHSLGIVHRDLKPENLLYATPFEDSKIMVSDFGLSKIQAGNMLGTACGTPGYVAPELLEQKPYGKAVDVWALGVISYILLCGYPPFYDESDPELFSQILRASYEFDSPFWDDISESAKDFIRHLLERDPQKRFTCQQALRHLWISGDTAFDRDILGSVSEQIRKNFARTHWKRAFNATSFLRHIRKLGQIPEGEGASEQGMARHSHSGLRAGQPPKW

[21] = biological target: DAPK3 (Homo sapiens, UniProt O43293); conditions: 1 µM; binder
[22] = biological target: CAMK4 (Homo sapiens, UniProt Q16566); conditions: 1 µM; binder
[23] = biological target: INSR (Homo sapiens, UniProt P06213); conditions: 1 µM; binder
[24] = biological target: EGFR(G719C) (Homo sapiens, UniProt P00533, G719C); conditions: 1 µM; binder
[25] = biological target: NEK7 (Homo sapiens, UniProt Q8TDX7); conditions: 1 µM; binder
NEK7, sequence (Q8TDX7 whole entry): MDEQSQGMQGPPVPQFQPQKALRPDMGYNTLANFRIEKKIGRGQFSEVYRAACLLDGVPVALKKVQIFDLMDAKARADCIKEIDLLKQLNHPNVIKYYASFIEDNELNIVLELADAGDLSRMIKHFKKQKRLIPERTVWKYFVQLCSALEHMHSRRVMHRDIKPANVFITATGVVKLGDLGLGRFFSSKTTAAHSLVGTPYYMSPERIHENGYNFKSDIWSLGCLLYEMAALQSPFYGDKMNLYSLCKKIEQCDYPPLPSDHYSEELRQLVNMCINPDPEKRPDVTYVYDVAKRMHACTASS

[26] = biological target: FLT3(ITD,F691L) (Homo sapiens, UniProt P36888, F691L/ITD); conditions: 1 µM; binder
[27] = biological target: EGFR(T790M) (Homo sapiens, UniProt P00533, T790M); conditions: 1 µM; binder
[28] = biological target: MEK4 (Homo sapiens, UniProt P45985); conditions: 1 µM; binder
[29] = biological target: NDR1 (Homo sapiens, UniProt Q15208); conditions: 1 µM; binder
[30] = biological target: ABL1(Y253F) (Homo sapiens, UniProt P00519, Y253F); conditions: phosphorylated; 1 µM; binder

CNc1ncc2cc(-c3ccc(-c4cccc(C)n4)cc3Cl)c(=O)n(C[C@H]3OC[C@H](N)CO3)c2n1 [compound 6, G-5555]
Percent Control [1]: 100%
Percent Control [2]: 100%
Percent Control [3]: 100%
Percent Control ([4]; Kin.Dom.1 N-terminal): 57%
Percent Control ([4]; Kin.Dom.2 C-terminal, 1 µM): 92%
Percent Control [5]: 79%
Percent Control [6]: 68%
Percent Control [7]: 100%
Percent Control [8]: 96%
Percent Control [9]: 71%
Percent Control [10]: 100%
Percent Control [11]: 27%
Percent Control [12]: 100%
Percent Control [13]: 97%
Percent Control [14]: 85%
Percent Control [15]: 2.5%
Percent Control [16]: 100%
Percent Control [17]: 26%
Percent Control [18]: 100%
Percent Control [19]: 24%
Percent Control [20]: 30%
Percent Control [21]: 100%
Percent Control [22]: 96%
Percent Control [23]: 97%
Percent Control [24]: 100%
Percent Control [25]: 100%
Percent Control [26]: 43%
Percent Control [27]: 85%
Percent Control [28]: 9.6%
Percent Control [29]: 70%
Percent Control [30]: 100%
